Data published in patent EP3333154A1, “CRYSTALLINE FORM OF A SELECTIVE 5-HT6 RECEPTOR ANTAGONIST” (SANDOZ AG, priority 2016, dated 2018).

How the values were obtained:
[1] = Time-dependent solubility in 0.1 N aqueous HCl solution; settings: for Concentration: 0.1 N HCl, (25 ± 1) °C, hydrochloride
Procedure: The time dependent solubilities of idalopirdine hydrochloride form III and form V in 0.1 N HCl have been determined. Thereby, saturated solutions of both forms have been stirred at controlled temperature of (25 ± 1) °C and known aliquots have been taken after 5, 30 and 60 minutes. After filtering the solids, the idalopiridine concentrations of the remaining mother liquors were determined by HPLC using the same method as provided in Example 3 herein. The absolute solubility values were calculated from a calibration curve generated with solutions of known idalopirdine concentrations. […] Table 4: Time dependent solubility of idalopirdine hydrochloride form III and form V in 0.1 N HCl at (25 ± 1) °C

[2] = Differential scanning calorimetry (thermal stability); assay type: physicochemical; settings: DSC, heating rate 10 K/min
Procedure: Differential scanning calorimetry (DSC) was performed on a Mettler Polymer DSC R instrument. The sample (4.36 mg) was heated in a 40 microL aluminium pan with pierced aluminium lid from room temperature to 250 °C at a rate of 10 K/min. Nitrogen (purge rate 50 mL/min) was used as purge gas.

[3] = Accelerated stress test at 40 °C/75% RH (HPLC impurities and PXRD); assay type: physicochemical; settings: 1 month at 40 °C/ 75% RH, open dish
Procedure: Idalopirdine hydrochloride form V was subjected to accelerated stress conditions of 40 °C and 75% RH in an open dish for one month.

[4] = Gravimetric moisture sorption (GMS); assay type: physicochemical
Procedure: Moisture sorption and desorption curves were recorded with an SPSx-1µ moisture sorption analyzer (ProUmid, Ulm). The measurement cycle was started at ambient RH of 45%. RH was then decreased to 5% in 5% steps, followed by a further decrease to 3% and to 0%. […] Finally, RH was increased to 40% in 5% steps.
The time per step was set to a minimum of 2 hours and a maximum of 6 hours. If an equilibrium condition with a constant mass of ± 0.01 % within 1 hour was reached before the maximum time for all examined samples the sequential humidity step was applied before the maximum time of 6 hours. If no equilibrium was achieved the consecutive humidity step was applied after the maximum time of 6 hours. The temperature was 25 ± 0.1 °C.

[5] = listed as Idalopirdine hydrochloride form V of the present invention

Compound | Concentration ([1]; 5 min) | Concentration ([1]; 30 min) | Concentration ([1]; 60 min) | higher concentration in 0.1 N HCl [1] | Concentration, difference to Form III ([1]; 5 min) | Concentration, difference to Form III ([1]; 30 min) | Concentration, difference to Form III ([1]; 60 min) | thermally stable up to a temperature [2] | PXRD before and after ([3]; listed as Idalopirdine hydrochloride form V) | Increase of total impurities (HPLC at 225nm) [3, 5] | PXRD before and after [3, 5] | Increase of total impurities (HPLC at 225nm) ([3]; hydrochloride) | PXRDs before and after the GMS experiment ([4]; 0 to 95% RH, 25 ± 0.1 °C) | mass increase in the sorption cycle ([4]; sorption cycle from 0 to 95% RH, 25 °C)
Cl.Fc1ccc2c(CCNCc3cccc(OCC(F)(F)C(F)F)c3)c[nH]c2c1 [Form III, N-[2-(6-fluoro-1H-indol-3-yl)ethyl]-3-(2,2,3,3-tetrafluoropropoxy)benzylamine hydrochloride, reference compound] | 500 µg/mL | 600 µg/mL | 800 µg/mL |  |  |  |  |  |  |  |  |  |  | 
Cl.Fc1ccc2c(CCNCc3cccc(OCC(F)(F)C(F)F)c3)c[nH]c2c1 [Form V, N-[2-(6-fluoro-1H-indol-3-yl)ethyl]-3-(2,2,3,3-tetrafluoropropoxy)benzylamine hydrochloride] | 700 µg/mL | 900 µg/mL | 900 µg/mL | up to 50% | +40% | +50% | +12.5% | at least 120 °C | No change | +0.7 area% | unchanged | about 0.7 area% | identical | 0.5 w-%
